Assay results reported in ChEMBL document CHEMBL1201862, “PubChem BioAssay data set” (2004).
Calls of active or inactive are those of the source.

Key:
[1] = target: T1, Replicative DNA helicase DnaB (Mycobacterium tuberculosis, UniProt P9WMR3); assay: DnaB intein splicing inhibitors, dose response, biochemical, cell-free fluorescence (AID 449749); format: functional
T1 sequence (P9WMR3 whole entry): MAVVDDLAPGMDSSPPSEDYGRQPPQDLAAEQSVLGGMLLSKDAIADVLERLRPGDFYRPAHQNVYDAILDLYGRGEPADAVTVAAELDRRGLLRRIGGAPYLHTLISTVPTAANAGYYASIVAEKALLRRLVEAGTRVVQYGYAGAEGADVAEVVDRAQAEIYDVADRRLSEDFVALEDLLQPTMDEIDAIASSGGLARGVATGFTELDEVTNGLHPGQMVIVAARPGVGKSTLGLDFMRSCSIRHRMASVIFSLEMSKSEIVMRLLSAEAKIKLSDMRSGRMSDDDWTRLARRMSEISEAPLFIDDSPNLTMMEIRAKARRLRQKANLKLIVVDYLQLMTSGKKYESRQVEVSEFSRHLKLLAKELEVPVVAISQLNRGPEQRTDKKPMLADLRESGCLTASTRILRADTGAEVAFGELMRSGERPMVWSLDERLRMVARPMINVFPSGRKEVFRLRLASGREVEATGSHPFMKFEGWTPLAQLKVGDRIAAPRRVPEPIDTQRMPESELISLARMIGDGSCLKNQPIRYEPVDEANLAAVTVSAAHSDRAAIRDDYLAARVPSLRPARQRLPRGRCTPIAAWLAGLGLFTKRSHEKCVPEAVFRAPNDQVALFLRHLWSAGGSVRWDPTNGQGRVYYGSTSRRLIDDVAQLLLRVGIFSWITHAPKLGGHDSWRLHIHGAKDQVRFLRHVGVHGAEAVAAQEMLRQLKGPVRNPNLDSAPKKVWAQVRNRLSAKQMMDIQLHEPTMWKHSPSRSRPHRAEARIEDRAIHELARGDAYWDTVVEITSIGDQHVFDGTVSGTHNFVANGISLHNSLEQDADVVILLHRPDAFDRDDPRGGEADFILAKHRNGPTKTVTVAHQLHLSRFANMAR

[2] = target: T2, Protein RecA (Mycobacterium tuberculosis, UniProt P9WHJ3); assay: Fluorescence Cell-Free Homogeneous Dose Retest to Identify Inhibitors of RecA-Intein Splicing Activity. [Related pubchem assays (depositor defined):AID2097, AID2223, AID489010, AID492950]; format: functional
T2 sequence (P9WHJ3 whole entry): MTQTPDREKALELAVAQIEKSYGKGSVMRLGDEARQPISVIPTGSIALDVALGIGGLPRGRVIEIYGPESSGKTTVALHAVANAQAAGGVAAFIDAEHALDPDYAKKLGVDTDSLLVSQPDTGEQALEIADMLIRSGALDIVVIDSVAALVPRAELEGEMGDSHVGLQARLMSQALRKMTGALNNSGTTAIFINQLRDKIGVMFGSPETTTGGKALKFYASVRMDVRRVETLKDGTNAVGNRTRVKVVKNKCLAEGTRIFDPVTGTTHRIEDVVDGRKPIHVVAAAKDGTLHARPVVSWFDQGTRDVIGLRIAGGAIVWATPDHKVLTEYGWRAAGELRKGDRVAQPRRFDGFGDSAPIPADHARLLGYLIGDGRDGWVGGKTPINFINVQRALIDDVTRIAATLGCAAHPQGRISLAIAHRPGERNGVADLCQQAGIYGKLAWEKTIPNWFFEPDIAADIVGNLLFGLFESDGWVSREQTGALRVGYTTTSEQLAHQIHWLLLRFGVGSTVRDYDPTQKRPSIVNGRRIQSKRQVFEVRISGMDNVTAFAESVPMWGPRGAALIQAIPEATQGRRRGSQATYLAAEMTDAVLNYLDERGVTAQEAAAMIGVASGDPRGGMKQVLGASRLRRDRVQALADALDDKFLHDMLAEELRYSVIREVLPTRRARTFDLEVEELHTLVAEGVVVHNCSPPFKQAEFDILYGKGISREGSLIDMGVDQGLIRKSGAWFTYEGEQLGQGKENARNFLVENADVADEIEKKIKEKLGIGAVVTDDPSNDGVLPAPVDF

[3] = target: T3, Caspase-6 (Homo sapiens, UniProt P55212); assay: human caspase-6 inhibitors, dose response, biochemical, VEID-R110 fluorescence, cherry-pick (AID 720632)
T3 sequence (P55212 whole entry): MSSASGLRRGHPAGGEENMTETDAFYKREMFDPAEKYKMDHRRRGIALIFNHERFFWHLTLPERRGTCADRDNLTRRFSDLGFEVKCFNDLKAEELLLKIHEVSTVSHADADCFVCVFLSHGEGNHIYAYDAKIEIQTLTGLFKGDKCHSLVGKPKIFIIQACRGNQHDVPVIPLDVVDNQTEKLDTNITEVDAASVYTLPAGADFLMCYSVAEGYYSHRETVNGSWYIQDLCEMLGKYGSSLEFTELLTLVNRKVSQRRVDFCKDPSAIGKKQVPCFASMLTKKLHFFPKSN

[4] = target: T4, Calpain-2 catalytic subunit (Sus scrofa, UniProt P43367); assay: pig calpain II inhibitor potency, dose response, biochemical, fluorogenic peptide substrate (AID 1420); format: functional
T4 sequence (P43367 whole entry): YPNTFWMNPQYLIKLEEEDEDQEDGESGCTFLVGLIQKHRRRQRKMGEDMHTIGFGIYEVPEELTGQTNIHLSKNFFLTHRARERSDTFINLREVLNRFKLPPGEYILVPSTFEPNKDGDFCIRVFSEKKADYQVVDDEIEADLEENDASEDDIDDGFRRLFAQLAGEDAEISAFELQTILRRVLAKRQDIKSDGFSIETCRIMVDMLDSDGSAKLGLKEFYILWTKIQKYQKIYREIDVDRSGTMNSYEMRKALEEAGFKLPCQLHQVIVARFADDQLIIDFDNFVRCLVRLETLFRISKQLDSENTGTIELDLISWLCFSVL

[5] = target: T5, Tyrosine-protein phosphatase non-receptor type 7 (Homo sapiens, UniProt P35236); assay: inhibitors of human HePTP phosphatase, […], biochemical, absorbance, leukemia target (AID 521); format: functional
T5 sequence (P35236 whole entry): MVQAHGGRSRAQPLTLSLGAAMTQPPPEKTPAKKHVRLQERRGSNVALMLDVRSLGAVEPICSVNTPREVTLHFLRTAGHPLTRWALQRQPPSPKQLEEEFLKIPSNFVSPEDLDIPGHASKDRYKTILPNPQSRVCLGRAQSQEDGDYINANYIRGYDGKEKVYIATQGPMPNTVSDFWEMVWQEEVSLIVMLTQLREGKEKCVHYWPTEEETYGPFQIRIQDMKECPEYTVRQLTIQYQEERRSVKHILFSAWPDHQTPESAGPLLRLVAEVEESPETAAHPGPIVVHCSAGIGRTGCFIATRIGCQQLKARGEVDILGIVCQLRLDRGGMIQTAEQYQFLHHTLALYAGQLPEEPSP

[6] = cytotoxicity in HPDE-C7 cells, cell-based, fluorescence, HTS (AID 430); format: functional; conditions: Homo sapiens
[7] = cytotoxicity in KRAS-transformed pancreatic duct cells, primary screen, cell-based, fluorescence, HTS (AID 431); format: functional; conditions: Homo sapiens;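 also: cell line used: HPDE-C7K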
[8] = growth suppression of PTEN-null colon cells, dose response, cell-based, HCT116 PTEN knockout (AID 1047); format: functional;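 also: HCT116 colon tumor cells with PTEN knocked out; cells exposed to compound for 60 hours before readout; potency for loss of cell viability measured by luminescence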
[9] = growth suppression of beta-catenin-knockout colon cells, dose response, cell-based, HCT116, human colon tumor (AID 1045); format: functional;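 also: HCT116 colon tumor cells with beta catenin knocked out; cells exposed to compound for 60 hours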
[10] = P. falciparum 3D7-ScDHODH growth inhibitors, dose response, SYBR Green, dry powder samples (AID 1159570); format: functional, cell-based;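 also: parasite growth measured after 72 hours of compound exposure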
[11] = HepG2 cell cytotoxicity, dose response, cytotoxicity control, plate reader, dry powder samples (AID 1159569); format: functional, cell-based;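 also: inhibitor potency with signal falling toward the positive control level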
[12] = P. falciparum Dd2 growth inhibitors, dose response, SYBR Green, cherry-picked samples (AID 1159567); format: functional, cell-based
[13] = P. falciparum Dd2 growth inhibitors, dose response, SYBR Green, dry powder samples (AID 1159566); format: functional, cell-based;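 also: potency for growth inhibition with lower SYBR green DNA signal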
[14] = P. falciparum ATP4 D1247Y mutant growth inhibitors, dose response, NITD609-resistant line, SYBR Green, dry powder (AID 1159571); format: functional, cell-based;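 also: parasites synchronized at ring stage by sorbitol before testing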
[15] = target: T6, Leucine aminopeptidase (Plasmodium falciparum 3D7, UniProt Q8IL11); assay: P. falciparum M17LAP inhibitors, primary screen, biochemical, fluorogenic H-Leu-NHMec substrate, 1536-well (AID 1619); format: functional
T6 sequence (Q8IL11 whole entry): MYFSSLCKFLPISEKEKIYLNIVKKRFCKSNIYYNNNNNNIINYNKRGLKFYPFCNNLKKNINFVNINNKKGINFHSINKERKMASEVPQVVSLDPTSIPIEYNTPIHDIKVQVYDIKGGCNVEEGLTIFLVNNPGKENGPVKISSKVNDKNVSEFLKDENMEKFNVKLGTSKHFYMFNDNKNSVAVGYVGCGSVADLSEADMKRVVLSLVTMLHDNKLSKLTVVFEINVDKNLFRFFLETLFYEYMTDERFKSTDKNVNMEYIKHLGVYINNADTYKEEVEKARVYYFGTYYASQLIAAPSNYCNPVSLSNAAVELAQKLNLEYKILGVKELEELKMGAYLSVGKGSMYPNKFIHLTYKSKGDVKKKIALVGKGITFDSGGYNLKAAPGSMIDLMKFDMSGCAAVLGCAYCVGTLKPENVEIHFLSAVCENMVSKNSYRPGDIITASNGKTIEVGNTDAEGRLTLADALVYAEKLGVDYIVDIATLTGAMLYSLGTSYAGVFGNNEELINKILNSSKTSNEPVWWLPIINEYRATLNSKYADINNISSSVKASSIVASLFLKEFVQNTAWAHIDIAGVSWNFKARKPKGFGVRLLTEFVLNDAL

CC1=NN(c2ccc(S(=O)(=O)O)cc2Cl)C(=O)C1
AC50 [1]: 4.45 µM (active) | EC50 [2]: 9.45 µM (active) | AC50 [3]: 19 µM (active)

O=C(Nc1ccc(Cl)c(Cl)c1)OCCNC(=O)c1cccc(Cl)c1
IC50 [4]: 2.99 µM (not active)

O=C(CN1C(=O)C2C3c4ccccc4C(c4ccccc43)C2C1=O)N1CCOCC1 (centres undefined)
IC50 [5]: > 100 µM (not active)

Cc1cc(-c2nnc3n2N=C(c2ccc(-c4ccccc4)cc2)CS3)[nH]n1
IC50 [5]: > 100 µM (not active) | EC50 [6]: 15.2 µM (active) | EC50 [7]: 16.1 µM (active) | EC50 [8]: 15.9 µM (active) | EC50 [9]: 13.7 µM (active)

C[C@H]1CN([C@@H](C)CO)C(=O)c2ccccc2-c2ccccc2CO[C@@H]1CN(C)C(=O)Nc1ccc(-c2ccccc2)cc1
AC50 [10]: 1.35 µM (active) | AC50 [11]: > 100 µM (inactive) | AC50 [12]: 1.77 µM (active) | AC50 [13]: 0.723 µM (active) | AC50 [14]: 1.56 µM (active)

COc1ccccc1CN1CC2(C1)[C@H](c1ccccc1)[C@H](CO)N2Cc1ccccc1
AC50 [10]: 4.14 µM (active) | AC50 [11]: 23.9 µM (active) | AC50 [13]: 1.96 µM (active) | AC50 [14]: 2.85 µM (active)

O=C(O)C1CC=CCC1C(=O)Nc1ccc(F)c(F)c1 (centres undefined)
IC50 [15]: 20.4 µM (active) | IC50 [5]: > 100 µM (not active)

O=C(Nc1ccccn1)c1cccc(S(=O)(=O)N2CCCCC2)c1
IC50 [5]: > 100 µM (not active)

COC(=O)c1ccccc1NC(=O)N1CCN(c2ccc(F)cc2)CC1
IC50 [4]: 8.67 µM (not active)

CC(C)c1ccc(NC(S)=NC2CC3C=CC2C3)cc1 (centres undefined)
IC50 [4]: 42.5 µM (not active)

C[C@@H]1CN([C@H](C)CO)C(=O)c2cc(C#Cc3cccc(F)c3)cnc2O[C@@H]1CN(C)C(=O)C1CCCCC1
AC50 [10]: 3.19 µM (active) | AC50 [11]: 30.1 µM (active) | AC50 [12]: 2.91 µM (active) | AC50 [13]: 2.16 µM (active) | AC50 [14]: 2.66 µM (active)
